Measured values as given in ChEMBL document CHEMBL3217687, “Identification of multifunctional small molecule-based reversible monoamine oxidase inhibitors” (Medchemcomm, 2011).

Key:
[1] = molecular target: T1, Amine oxidase [flavin-containing] A (Homo sapiens, UniProt P21397); assay: Inhibition of human recombinant MAOA assessed as kynuramine conversion to 4-hydroxyquinoline after 20 mins by fluorescence assay
T1 sequence (P21397 whole entry): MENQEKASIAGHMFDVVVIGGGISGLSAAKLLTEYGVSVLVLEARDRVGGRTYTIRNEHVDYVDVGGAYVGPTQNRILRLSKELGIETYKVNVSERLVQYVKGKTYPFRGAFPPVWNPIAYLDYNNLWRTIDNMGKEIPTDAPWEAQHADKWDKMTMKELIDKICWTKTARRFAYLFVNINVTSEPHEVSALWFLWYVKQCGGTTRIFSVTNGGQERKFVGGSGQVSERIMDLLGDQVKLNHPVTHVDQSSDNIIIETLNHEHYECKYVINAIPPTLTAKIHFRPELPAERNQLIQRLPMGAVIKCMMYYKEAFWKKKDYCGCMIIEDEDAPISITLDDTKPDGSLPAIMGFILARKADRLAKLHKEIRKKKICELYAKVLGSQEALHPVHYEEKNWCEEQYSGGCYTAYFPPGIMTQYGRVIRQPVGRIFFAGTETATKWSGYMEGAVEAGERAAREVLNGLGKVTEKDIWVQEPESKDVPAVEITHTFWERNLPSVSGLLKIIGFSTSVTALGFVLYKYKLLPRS

Homo sapiens = organism: Homo sapiens; assay: Selectivity index, ratio of Ki for human recombinant MAOA to Ki for human recombinant MAOB
[2] = molecular target: T2, Amine oxidase [flavin-containing] B (Homo sapiens, UniProt P27338); assay: Binding affinity to human recombinant MAOB
T2 sequence (P27338 whole entry): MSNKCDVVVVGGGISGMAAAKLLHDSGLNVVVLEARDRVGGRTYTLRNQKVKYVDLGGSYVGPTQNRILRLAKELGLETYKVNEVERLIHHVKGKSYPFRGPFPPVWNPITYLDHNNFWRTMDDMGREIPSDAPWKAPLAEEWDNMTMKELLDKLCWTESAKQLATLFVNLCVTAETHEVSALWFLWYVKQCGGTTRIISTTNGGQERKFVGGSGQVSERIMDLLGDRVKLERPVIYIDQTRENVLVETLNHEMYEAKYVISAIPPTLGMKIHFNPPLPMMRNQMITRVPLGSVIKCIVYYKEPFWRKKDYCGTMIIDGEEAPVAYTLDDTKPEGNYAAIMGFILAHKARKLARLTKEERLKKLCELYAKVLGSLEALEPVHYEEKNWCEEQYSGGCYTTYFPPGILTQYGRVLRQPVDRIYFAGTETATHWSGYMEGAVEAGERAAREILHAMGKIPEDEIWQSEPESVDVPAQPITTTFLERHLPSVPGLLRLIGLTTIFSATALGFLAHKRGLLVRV

[3] = molecular target: T2, Amine oxidase [flavin-containing] B; assay: Inhibition of human recombinant MAOB assessed as kynuramine conversion to 4-hydroxyquinoline after 20 mins by fluorescence assay
[4] = molecular target: T1, Amine oxidase [flavin-containing] A; assay: Binding affinity to human recombinant MAOA

| IC50 [1] [µM] | Ratio Ki (Homo sapiens) | Ki [2] [µM] | IC50 [3] [µM] | Ki [4] [µM] | Compound |
| --- | --- | --- | --- | --- | --- |
| 0.36 | 2.8 | 0.04 | 0.068 | 0.1 | CN(C)c1ccc(/N=C/c2ccccn2)cc1 |
| 20 | 0.06 | 97 | 182 | 5.7 | c1ccc(NCc2ccccn2)cc1 |
